Measurements published in patent publication EP4707280A1, “1,4-CINEOLE DERIVATIVE AND INTERMEDIATE THEREOF, HERBICIDE CONTAINING SAID DERIVATIVE AS ACTIVE INGREDIENT, METHOD FOR USING HERBICIDE, AND METHOD FOR PREPARING AGROCHEMICAL COMPOSITION” (HOKKO CHEMICAL INDUSTRY CO., LTD., priority 2023, dated 2024).

Columns and labels:
Assay type in all cases: in vivo
[1] = test system: Echinochloa crus-galli var. formosensis; test: Test Example 5: herbicidal effect test by soil application in paddy rice (low dose); conditions: Echinochloa crus-galli, soil, 336 h; 7.5 g per 10 ares; applied immediately after sowing, flooded pots; 14 days after application; read-out: weed inhibition rate
Procedure, shortened: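 Paddy soil in Wagner pots was fertilized (N:P:K 16:16:16), puddled, sown with 30 seeds per weed species at 0–1 cm, then flooded to ~3 cm in a glass greenhouse. Emulsifiable concentrate diluted in water was dropper-applied into floodwater immediately, at 7.5 g active ingredient per 10 ares; duplicates, scored at 14 days.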

[2] = test system: Echinochloa crus-galli var. formosensis; test: Test Example 6: herbicidal effect test by application during growth period of paddy rice (low dose); conditions: Echinochloa crus-galli; 7.5 g per 10 ares; applied seven days after sowing, flooded pots; 14 days after application; read-out: weed inhibition rate
Protocol: (§1) The present test was conducted in duplicate for each chemical concentration group, and the weed inhibition rate (%) was determined 14 days after chemical application using the following formula (Math. 1). [formula]
Wagner pots with an area of […] were filled with paddy soil, followed by addition of water and incorporation of chemical fertilizer (N:P:K = 16:16:16), after which puddling was performed. After that, seeds of Echinochloa crus-galli var. formosensis, broad-leaved weeds (Monochoria vaginalis), and Scirpus juncoides were sown at a depth of 0 cm to 1 cm, 30 seeds each. Immediately after sowing, the pots were flooded and a water depth of approximately 3 cm was maintained. Subsequent management was conducted in a glass greenhouse. Seven days after sowing, an emulsifiable concentrate prepared according to Formulation Example 5 using the compound shown below was diluted with water, and a specified amount of the diluted solution was applied by dropper. The amount of the active ingredient to be applied was equivalent to 7.5 g per 10 ares. The test was conducted in duplicate for each chemical concentration group, and the herbicidal effect was evaluated 14 days after chemical application using the same criteria as in Test Example 1.

[3] = test system: Echinochloa crus-galli; test: Test Example 4: herbicidal effect test by stem and leaf treatment in upland field; conditions: Echinochloa crus-galli; 120 g per 10 ares; sprayed seven days after sowing, upland soil; 14 days after application; read-out: weed inhibition rate
[4] = test system: Echinochloa crus-galli; test: Test Example 8: herbicidal effect test by stem and leaf treatment in upland field (low dose); conditions: Echinochloa crus-galli; 7.5 g per 10 ares; sprayed seven days after sowing, upland soil; 14 days after application; read-out: weed inhibition rate
Protocol: as §1
(§2) Pots with an area of 36 cm^2 were filled with upland soil (alluvial loam), twenty seeds each of weeds of Digitaria ciliaris, and Echinochloa crus-galli were uniformly mixed with the top 1 cm layer of soil and the surface was lightly pressed down. Seven days after sowing, an emulsifiable concentrate prepared according to Formulation Example 5 using the compound shown below was diluted with water, and the diluted solution was sprayed onto the soil surface at a rate of 100 liters per 10 ares. The amount of the active ingredient to be applied was equivalent to 7.5 g per 10 ares. Fourteen days after chemical application, the herbicidal effect was evaluated according to the same criteria as in Test Example 1.

[5] = test system: Digitaria ciliaris; test: as above; conditions: Digitaria ciliaris; 7.5 g per 10 ares; sprayed seven days after sowing, upland soil; 14 days after application; read-out: weed inhibition rate
Protocol: as §1, §2

[6] = test system: Echinochloa crus-galli var. formosensis; test: Test Example 1: herbicidal effect test by soil application in paddy rice; conditions: Echinochloa crus-galli, soil, 336 h; 120 g active ingredient per 10 ares; applied immediately after sowing, flooded pots; 14 days after application; read-out: weed inhibition rate
Procedure, shortened: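 Treatment: 120 g active ingredient per 10 ares as a water-diluted emulsifiable concentrate, dropped onto flooded pots immediately after sowing. Thirty seeds per species went 0–1 cm into puddled paddy soil with 16:16:16 fertilizer, with ~3 cm flooding maintained in a glass greenhouse.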

[7] = test system: Digitaria ciliaris; test: Test Example 4: herbicidal effect test by stem and leaf treatment in upland field; conditions: Digitaria ciliaris; 120 g per 10 ares; sprayed seven days after sowing, upland soil; 14 days after application; read-out: weed inhibition rate
[8] = test system: Echinochloa crus-galli var. formosensis; test: Test Example 2: herbicidal effect test by application during growth period of paddy rice; conditions: Echinochloa crus-galli; 120 g per 10 ares; applied seven days after sowing, flooded pots; 14 days after application; read-out: weed inhibition rate
Procedure, shortened: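 Paddy soil in Wagner pots was puddled with N:P:K 16:16:16 fertilizer, sown with 30 weed seeds per species at 0–1 cm and flooded to about 3 cm. Seven days after sowing, a water-diluted emulsifiable concentrate was dropped onto the water at 120 g active ingredient per 10 ares. Weed inhibition (%) was scored at 14 days, in duplicate.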

[9] = test system: Echinochloa crus-galli; test: Test Example 3: herbicidal effect test by soil application in upland field; conditions: Echinochloa crus-galli, 120 g per 10 ares, sprayed one day after sowing, 14 days after application, read-out: weed inhibition rate
Procedure, shortened: (§3)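 Weed inhibition (%) was assessed 14 days after treatment, in duplicate per concentration group. Seeds had been mixed into the upper 1 cm of upland alluvial loam, and the soil surface was sprayed one day later with the diluted emulsifiable concentrate at 120 g active ingredient per 10 ares.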

[10] = test system: Digitaria ciliaris; test: as above; conditions: Digitaria ciliaris, 120 g per 10 ares, sprayed one day after sowing, 14 days after application, read-out: weed inhibition rate
Procedure, shortened: as §3

[11] = test system: Echinochloa crus-galli; test: Test Example 7: herbicidal effect test by soil application in upland field (low dose); conditions: Echinochloa crus-galli, 7.5 g per 10 ares, sprayed one day after sowing, 14 days after application, read-out: weed inhibition rate
Protocol: as §1
as §2, with “One day” for “Seven days”

[12] = test system: Digitaria ciliaris; test: as above; conditions: Digitaria ciliaris, 7.5 g per 10 ares, sprayed one day after sowing, 14 days after application, read-out: weed inhibition rate
Protocol: as §1
as §2, with “One day” for “Seven days”

COc1ccccc1CO[C@@H]1C[C@]2(C(C)C)O[C@@]1(C)C[C@@H]2Br [1-18, (1S,2R,4R,5S)-5-bromo-2-[(2-methoxyphenyl)methoxy]-1-methyl-4-isopropyl-7-oxabicyclo[2.2.1]heptane]
≥ 80%: inhibition at 75 g/ha [1] | inhibition at 75 g/ha [2] | inhibition at 1200 g/ha [3] | inhibition at 75 g/ha [4] | inhibition at 75 g/ha [5] | pest or weed control at 1200 g/ha [6] | inhibition at 1200 g/ha [7] | inhibition at 1200 g/ha [8]

CCc1ccccc1CO[C@@H]1C[C@]2(C(C)C)O[C@@]1(C)C[C@@H]2Br [1-682, (1S,2R,4R,5S)-5-bromo-2-[(2-ethylphenyl)methoxy]-1-methyl-4-isopropyl-7-oxabicyclo[2.2.1]heptane]
≥ 80%: inhibition at 75 g/ha [1] | inhibition at 1200 g/ha [9] | inhibition at 1200 g/ha [10] | inhibition at 75 g/ha [2] | inhibition at 1200 g/ha [3] | inhibition at 75 g/ha [4] | inhibition at 75 g/ha [5] | pest or weed control at 1200 g/ha [6] | inhibition at 1200 g/ha [7] | inhibition at 75 g/ha [11] | inhibition at 75 g/ha [12] | inhibition at 1200 g/ha [8]

CC(C)[C@]12C[C@@H](OCc3ccccn3)[C@](C)(C[C@@H]1Br)O2 [1-718, 2-[[(1S,2R,4R,5S)-5-bromo-1-methyl-4-isopropyl-7-oxabicyclo[2.2.1]heptan-2-yl]oxymethyl]pyridine]
≥ 80%: inhibition at 75 g/ha [1] | inhibition at 1200 g/ha [9] | inhibition at 1200 g/ha [10] | inhibition at 75 g/ha [2] | inhibition at 1200 g/ha [3] | inhibition at 75 g/ha [4] | inhibition at 75 g/ha [5] | pest or weed control at 1200 g/ha [6] | inhibition at 1200 g/ha [7] | inhibition at 75 g/ha [11] | inhibition at 75 g/ha [12] | inhibition at 1200 g/ha [8]

Cc1ccccc1COC1CC2(C(C)C)OC1(C)CC2Br (stereo not shown) [1-1343, 5-bromo-1-methyl-2-[(2-methylphenyl)methoxy]-4-isopropyl-7-oxabicyclo[2.2.1]heptane]
≥ 80%: inhibition at 75 g/ha [1] | inhibition at 1200 g/ha [9] | inhibition at 1200 g/ha [10] | inhibition at 75 g/ha [2] | inhibition at 1200 g/ha [3] | inhibition at 75 g/ha [4] | inhibition at 75 g/ha [5] | pest or weed control at 1200 g/ha [6] | inhibition at 1200 g/ha [7] | inhibition at 75 g/ha [11] | inhibition at 75 g/ha [12] | inhibition at 1200 g/ha [8]

COc1ccccc1COC1CC2(C(C)C)OC1(C)CC2Br (stereo not shown) [1-1349, 5-bromo-2-[(2-methoxyphenyl)methoxy]-1-methyl-4-isopropyl-7-oxabicyclo[2.2.1]heptane]
≥ 80%: inhibition at 75 g/ha [1] | inhibition at 1200 g/ha [9] | inhibition at 1200 g/ha [10] | inhibition at 75 g/ha [2] | inhibition at 1200 g/ha [3] | inhibition at 75 g/ha [4] | inhibition at 75 g/ha [5] | pest or weed control at 1200 g/ha [6] | inhibition at 1200 g/ha [7] | inhibition at 75 g/ha [11] | inhibition at 75 g/ha [12] | inhibition at 1200 g/ha [8]

CC(C)C12CC(OCc3ccc(F)cc3)C(C)(CC1Br)O2 (stereo not shown) [1-1357, 5-bromo-2-[(4-fluorophenyl)methoxy]-1-methyl-4-isopropyl-7-oxabicyclo[2.2.1]heptane]
≥ 80%: inhibition at 75 g/ha [1] | inhibition at 1200 g/ha [9] | inhibition at 1200 g/ha [10] | inhibition at 75 g/ha [2] | inhibition at 1200 g/ha [3] | inhibition at 75 g/ha [4] | inhibition at 75 g/ha [5] | pest or weed control at 1200 g/ha [6] | inhibition at 1200 g/ha [7] | inhibition at 75 g/ha [11] | inhibition at 75 g/ha [12] | inhibition at 1200 g/ha [8]

CC(C)C12CC(OCc3ccccc3Cl)C(C)(CC1Br)O2 (stereo not shown) [1-1358, 5-bromo-2-[(2-chlorophenyl)methoxy]-1-methyl-4-isopropyl-7-oxabicyclo[2.2.1]heptane]
≥ 80%: inhibition at 75 g/ha [1] | inhibition at 1200 g/ha [9] | inhibition at 1200 g/ha [10] | inhibition at 75 g/ha [2] | inhibition at 1200 g/ha [3] | inhibition at 75 g/ha [4] | inhibition at 75 g/ha [5] | pest or weed control at 1200 g/ha [6] | inhibition at 1200 g/ha [7] | inhibition at 75 g/ha [11] | inhibition at 75 g/ha [12] | inhibition at 1200 g/ha [8]

CC(C)C12CC(OCc3c(F)cccc3Br)C(C)(CC1Br)O2 (stereo not shown) [1-1598, 5-bromo-2-[(2-bromo-6-fluorophenyl)methoxy]-1-methyl-4-isopropyl-7-oxabicyclo[2.2.1]heptane]
≥ 80%: inhibition at 75 g/ha [1] | inhibition at 1200 g/ha [9] | inhibition at 1200 g/ha [10] | inhibition at 75 g/ha [2] | inhibition at 1200 g/ha [3] | inhibition at 75 g/ha [4] | inhibition at 75 g/ha [5] | pest or weed control at 1200 g/ha [6] | inhibition at 75 g/ha [11] | inhibition at 75 g/ha [12] | inhibition at 1200 g/ha [8]
